Results published in US7091351B2, “Vanadium compounds for treating cancer” (Parker Hughes Institute, priority 1998, dated 2006).

Tests used:
Type in all cases: cell-based, human
[1] = tested on: Tera-2 testicular cancer cells; experiment: Flow cytometric TUNEL apoptosis assay, TERA-2 cells; conditions: 24 h, TUNEL-positive nuclei
Experimental: A flow cytometric two-color terminal […] transferase (TdT)-mediated digoxigenin-uridine triphosphate (dUTP) nick-end labeling assay (TUNEL) was employed to detect apoptotic nuclei. Gavrieli, Y., Sherman, Y., Ben-Sasson, S. A. Identification of programmed cell death in situ via specific labeling of nuclear DNA fragmentation. J. Cell Biol., 119: 493–501, 1992. Exponentially growing cells (10^6/ml) were incubated in DMSO alone (0.1%) or treated with 100 μM each of the 16 vanadocenes (VDB, VDC, VMDC, VDI, VDA, VDCN, VDOCN, VDSCN, VDSeCN, VDT, VDCO, VDFe, VD(acac), VDH, VD(dpy), and VD(dtc) in 0.1% DMSO for 24 h. Cells were washed in PBS, fixed in 4% paraformaldehyde in PBS for 15 min on ice. Following two washings in PBS, they were permeabilized with 0.1% Triton X-100 in 0.1% sodium citrate for 2 min on ice, and washed twice in PBS. Labeling of exposed 3′-hydroxyl (3′-OH) ends of fragmented nuclear DNA was performed using TdT and fluorescein isothiocyanate (FITC)-conjugated dUTP according to the manufacturer's recommendations (Boehringer Mannheim, Indianapolis, Ind.). Cells were counterstained with 5 μg/ml PI. Control samples included: (i) untreated cells; (ii) cells incubated with the reaction mixture without the TdT enzyme. Cells were analyzed with a FACS Calibur flow cytometer (Becton Dickinson, Mountain View, Calif.). Relative DNA content (PI) was detected with band-pass filter 585/42, and dUTP incorporation (FITC) was detected with band-pass filter 530/30. Fluorescence was compensated for in the acquisition software using single-label control samples. Data were acquired in listmode, gated to 10,000 events per sample, and analyzed with the use of CELLQuest software program (Becton Dickinson). […] Vanadocene-induced apoptosis is shown by an increase in the number of cells staining with FITC-dUTP. The M1 and M2 gates were used to demarcate non-apoptotic and apoptotic PI-counterstained cell populations, respectively. TUNEL assays were performed using two testicular cell lines Tera-2 and Ntera-2 following exposure to each of the 16 vanadocenes. In other experiments, MC540 binding (as an early marker of apoptosis) and PI permeability (as a marker of advanced stage apoptosis) were simultaneously measured in human cancer cells 24 hours after exposure to vanadocenes, as previously described. Uckun, F. M., Narla, R. K., Jun, X., Zeren, T., Venkatachalam, T., Waddick, K. G., Rostostev, A., Myers, D. E. Cytotoxic activity of EGF-genstein against breast cancer cells. Clin. Cancer Res. 4:901–912, 1998. Vassilev, A., Ozer, Z., Navara, C., Mahajan, S., and Uckun, F. M. Bruton's tyrosine kinase as an inhibitor of the Fas/CD95 death-inducing signaling complex. J. Biol. Chem. 274:1646–56, 1999. Whole cells were analyzed using a FACStar Plus flow cytometer (Becton Dickinson, San Jose, Calif.). All analyses were done using 488 nm excitation from an argon laser. MC540 and PI emissions were split with a 600 nm short pass dichroic mirror and a 575 nm band pass filter was placed in front of one photomultiplier tube to measure MC540 emission and a 635 nm band pass filter was used for PI emission.

MOLT-3 cells = experiment: MTT cytotoxicity assay of oxovanadium(IV) compounds, MOLT-3; conditions: 48 hr
Experimental: (§1) The cytotoxicity of oxovanadium (W) complexes listed in Table 6 were tested against 9 different human cancer cell lines was performed using the MTT (3-[4,5-dimethylthiazol-2-yl]-2,5-diphenyl tetrazolium bromide) assay (Boehringer Mannheim Corp., Indianapolis, Ind.) as described previously (20). Briefly, exponentially growing tumor cells were seeded into a 96-well plate at a density of 4×10^4cells/well and incubated with medium containing the oxovanadium(IV) compounds concentrations ranging from 0.1 to 250 μM for 48 hours at 37° C. in a humidified 5% CO2 atmosphere. Triplicate wells were used for each treatment. To each well, 10 μl of MTT (0.5 mg/ml final concentration) was added and the plates were incubated at 37° C. for 4 hours to allow MTT to form formazan crystals by reacting with metabolically active cells . The formazan crystals were solubilized overnight at 37° C. in a solution containing 10% SDS in 0.01 M HCl. The absorbence of each well was measured in a microplate reader (Labsystems) at 540 nm and a reference wavelength of 690 nm. To translate the OD540 values into the number of live cells in each well, the OD540 values were compared to those on standard OD540—versus—cell number curves generated for each cell line. The percent survival was calculated using the formula: % survival=Live cell number[test]/Live cell number [control]×100. The IC50 values were calculated by non-linear regression analysis using an Graphpad Prism software version 2.0 (Graphpad Software, Inc., San Diego, Calif.).

[2] = tested on: U266BL multiple myeloma cells; experiment: MTT cytotoxicity assay of oxovanadium(IV) compounds, U266BL; conditions: 48 hr
Experimental: as §1

[3] = tested on: 833-K testicular cancer cells; experiment: Cytotoxic activity of oxovanadium(IV) compounds, 833-K; conditions: read-out: Cytotoxic Activity 833-K
Experimental: as §1

HS-SULTAN cells = experiment: In situ detection of apoptosis, confocal microscopy, HS-SULTAN; conditions: 48 hours after treatment
Experimental: Exponentially growing cells were seeded in 6-well tissue culture plates and incubated with fresh medium containing compounds. […] The cells were fixed in 2% paraformaldehyde, washed with PBS and pelleted by centrifuging the tubes at 1000 rpm for 5 min. Cells pellets were resuspended in 50 μl of PBS, transferred to superforst plus slides and allowed to attach for 15 min. The cells were permeabilized with 0.1% triton X-100 in 0.1% citrate buffer and incubated for 1 hr at 37° C. with the reaction mixture containing terminal deoxynucleotidyl transferase (TdT) and fluorescein isothiocyanate (FITC)-conjugated dUTP. Cells were washed with PBS to remove unbound reagents and the coverslips were mounted onto slides with Vectashield containing propidium iodide (Vector Labs, Burlingame, Calif.) and slides were viewed with a confocal laser scanning microscope. […] In control reactions, the TdT enzyme was omitted from the reaction mixture.

Molecule | % Apoptosis at 100 μM TERA-2 [1] | IC50 (MOLT-3 cells) | IC50 [2] | IC50 [3] | apoptotic nuclei (FITC-dUTP / propidium iodide), HS-SULTAN (HS-SULTAN cells)
[Cl-].[Cl-].[V+4].c1cc[cH-]c1.c1cc[cH-]c1 [VDC, VCp2Cl2] | 88 (87, 89) % | – | – | – | –
bis(4,7-dimethyl-1,10-phenanthroline)sulfatooxovanadium(IV) [Compound 29] | – | 0.19 ± 0.01 µM | 0.5 ± 0.02 µM | 0.85 µM | many apoptotic yellow nuclei
